From paper PMC11358582, “Discovery of a potential bladder cancer inhibitor CHNQD-01281 by regulating EGFR and promoting infiltration of cytotoxic T cells” (Marine Life Science & Technology, 2024)

Test system: T24 xenograft
Experiment: T24 nude mice xenograft model
Assay type: in vivo, BALB/c-nu mice
Details: for reduction of Ki67 expression level (IHC): tumor tissue
Description: Specific pathogen free (SPF)-grade C57BL/6 mice and BALB/c-nu mice were purchased from Jinan Pengyue Experimental Animal Center (license No. SCXK 20190003). The protocol was approved by the Research Review Committee of the Ocean University of China. All mice were housed in 12-h light and 12-h dark conditions in which the humidity was 50% ± 10% and the temperature was 22 ± 2 °C. All mice had free access to food and water. The human bladder cancer cell line T24 was injected subcutaneously into BALB/c-nu mice to construct a xenograft tumor model. The cell suspension of mouse bladder cancer cell line MB49 was injected into C57BL/6 mice subcutaneously to construct a syngeneic tumor model.
Fixed tissues were embedded in paraffin and then sectioned. The specimens were incubated with antibodies against Ki67, CD3, CD4, CD8 (Servicebio, China) and EGFR (ABclonal, China) at 4 °C overnight. The next day, the slides were washed with 1 × PBST three times for 5 min each and stained with the secondary antibodies and Hoechst 33342 dye (Beyotime, China) for 60 min for IF. For IHC staining, the sections were developed with a rabbit/mouse HRP kits (DAB) (Beyotime, China) according to the manufacturer’s instructions.
Therefore, xenograft and homologous tumor models were constructed to further evaluate the antitumor effect of CHNQD-01281 in vivo. The mouse bladder cancer xenograft model was established by the subcutaneous inoculation of the T24 cell line, then CHNQD-01281 was intraperitoneally administrated for two consecutive weeks (Fig. 5A).

In the case of `C[C@H]1CCC/C=C/[C@@H]2C[C@H](O)C[C@H]2[C@H](OC(=O)/C=C/c2cccnc2)/C=C/C(=O)O1` [CHNQD-01281, Brefeldin A 4-O-3-(pyridin-3-yl) acrylate], the “reduction of Ki67 expression level (IHC)” value (15 mg/kg, versus control) is reported as 38.32%, the “expression of EGFR in tumor (IHC)” value (30 mg/kg) is reported as “significantly down-regulated expression of EGFR” and the “tumor growth inhibition rate (TGI %)” value (30 mg/kg, i.p., QD, two weeks, tumor volume) is reported as 52.63%. The “reduction of Ki67 expression level (IHC)” value (30 mg/kg, versus control) was 66.47% and the “reduction of tumor weight” value (30 mg/kg, versus control) was 48.57%.
